{"source": "patent US6465395B2", "about": "“Substituted methylene pyrazolinones and the herbicidal use thereof” (BASF Aktiengesellschaft, priority 2000, dated 2002)", "assay_type_in_all_cases": "in vivo", "key": {"[1]": {"system": "GOSHI, Cotton, Gossypium hirsutum, L.", "assay": "Postemergence herbicidal evaluation", "details": "crop (cotton)", "procedure": "(§1) The postemergence herbicidal activity of the compounds of the present invention is evaluated by the following tests. Seedling plants are grown in jiffy flats for about two weeks. The test compounds are dispersed in 80/20 (v/v) acetone/water mixtures containing 1.0% SUN-IT®II, a methylated seed oil, in sufficient quantities to provide the equivalent of about 0.006 kg/ha to 0.800 kg/ha of active compound when applied to the plants through a spray nozzle operating at 40 psi for a predetermined time. After spraying, the plants are placed on greenhouse benches and are cared for in accordance with conventional greenhouse procedures. Approximately two to three weeks after treatment, the seedling plants are examined and rated according to the rating system set forth below. Where more than one test is involved for a given compound, the data are averaged."}, "[2]": {"system": "ABUTH, Velvetleaf, Abutilon theophrasti, Medic.", "assay": "Postemergence herbicidal evaluation", "procedure": "as §1"}, "[3]": {"system": "AMBEL, Ragweed, Ambrosia artemisifolia, L.", "assay": "Postemergence herbicidal evaluation", "procedure": "as §1"}, "[4]": {"system": "CHEAL, Lambsquarters, Chenopodium album, L.", "assay": "Postemergence herbicidal evaluation", "procedure": "as §1"}, "[5]": {"system": "ECHCG, Barnyardgrass, Echinochloa crus-galli, (L.) Beau", "assay": "Postemergence herbicidal evaluation", "procedure": "as §1"}, "[6]": {"system": "IPOSS, Morningglory spp., Ipomoea spp.", "assay": "Postemergence herbicidal evaluation", "procedure": "as §1"}, "[7]": {"system": "ORYSAT, Rice, Tebonnet, Oryza sativa, (L.) Tebonnet", "assay": "Postemergence herbicidal evaluation", "details": "crop (rice)", "procedure": "as §1"}, "[8]": {"system": "PANDI, Panicum, Fall, Panicum dichotomiflorum, Michx", "assay": "Postemergence herbicidal evaluation", "procedure": "as §1"}, "[9]": {"system": "SETVI, Foxtail, Green, Setaria viridis, (L.) Beau", "assay": "Postemergence herbicidal evaluation", "procedure": "as §1"}, "[10]": {"system": "ZEAMX, Corn, Field, Zea mays, L.", "assay": "Postemergence herbicidal evaluation", "details": "crop (corn)", "procedure": "as §1"}, "[11]": {"system": "ABUTH, Velvetleaf, Abutilon theophrasti, Medic.", "assay": "Preemergence herbicidal evaluation", "from_the_text": "(§2) The preemergence herbicidal activity of the test compounds of the present invention is exemplified by the following tests in which the seeds of a variety of monocotyledonous and dicotyledonous plants are separately mixed with potting soil and planted on top of approximately one inch of soil in separate pint cups. After planting, the cups are sprayed with the selected aqueous acetone solution containing test compound in sufficient quantity to provide the equivalent of about 0.0125 kg/ha to 0.800 kg/ha of test compound per cup. The treated cups are then placed on greenhouse benches, watered and cared for in accordance with conventional greenhouse procedures. Approximately two to four weeks after treatment, the tests are terminated and each cup is examined and rated according to the rating system provided in Example 12. When more than one test is performed for a given compound, the data are averaged."}, "[12]": {"system": "AMBEL, Ragweed, Ambrosia artemisifolia, L.", "assay": "Preemergence herbicidal evaluation", "from_the_text": "as §2"}, "[13]": {"system": "CHEAL, Lambsquarters, Chenopodium album, L.", "assay": "Preemergence herbicidal evaluation", "from_the_text": "as §2"}, "[14]": {"system": "ECHCG, Barnyardgrass, Echinochloa crus-galli, (L.) Beau", "assay": "Preemergence herbicidal evaluation", "from_the_text": "as §2"}, "[15]": {"system": "GOSHI, Cotton, Gossypium hirsutum, L.", "assay": "Preemergence herbicidal evaluation", "details": "crop (cotton)", "from_the_text": "as §2"}, "[16]": {"system": "IPOSS, Morningglory spp., Ipomoea spp.", "assay": "Preemergence herbicidal evaluation", "from_the_text": "as §2"}, "[17]": {"system": "ORYSAT, Rice, Tebonnet, Oryza sativa, (L.) Tebonnet", "assay": "Preemergence herbicidal evaluation", "details": "crop (rice)", "from_the_text": "as §2"}, "[18]": {"system": "PANDI, Panicum, Fall, Panicum dichotomiflorum, Michx", "assay": "Preemergence herbicidal evaluation", "from_the_text": "as §2"}, "[19]": {"system": "SETVI, Foxtail, Green, Setaria viridis, (L.) Beau", "assay": "Preemergence herbicidal evaluation", "from_the_text": "as §2"}, "[20]": {"system": "ZEAMX, Corn, Field, Zea mays, L.", "assay": "Preemergence herbicidal evaluation", "details": "crop (corn)", "from_the_text": "as §2"}}, "data": [{"molecule": "CCCS/C(=C1\\C=NN(CC)C1=O)c1ccc2c(c1C)/C(=N/OC)CCS2(=O)=O", "note": "[Example 8a, 1-Ethyl-4-[(E)-(5-methyl-4-oxothiochroman-6-yl)(propylthio)methylene]-2-pyrazolin-5-one 4′-[(E)-O-methyloxime], S,S-dioxide]", "values": [{"measurement": "Herbicide rating GOSHI", "setting": "[1]; 0.0500 kg/ha", "value": 0.0}, {"measurement": "Herbicide rating GOSHI", "setting": "[1]; 0.1000 kg/ha", "value": 0.0}, {"measurement": "Herbicide rating GOSHI", "setting": "[1]; 0.2000 kg/ha", "value": 0.0}, {"measurement": "Herbicide rating GOSHI", "setting": "[1]; 0.4000 kg/ha", "value": 3.0}, {"measurement": "Herbicide rating GOSHI", "setting": "[1]; 0.8000 kg/ha", "value": 6.0}, {"measurement": "Herbicide rating ABUTH", "setting": "[2]; 0.0500 kg/ha", "value": 0.0}, {"measurement": "Herbicide rating ABUTH", "setting": "[2]; 0.1000 kg/ha", "value": 1.0}, {"measurement": "Herbicide rating ABUTH", "setting": "[2]; 0.2000 kg/ha", "value": 2.0}, {"measurement": "Herbicide rating ABUTH", "setting": "[2]; 0.4000 kg/ha", "value": 8.0}, {"measurement": "Herbicide rating ABUTH", "setting": "[2]; 0.8000 kg/ha", "value": 6.0}, {"measurement": "Herbicide rating AMBEL", "setting": "[3]; 0.0500 kg/ha", "value": 2.0}, {"measurement": "Herbicide rating AMBEL", "setting": "[3]; 0.1000 kg/ha", "value": 3.0}, {"measurement": "Herbicide rating AMBEL", "setting": "[3]; 0.2000 kg/ha", "value": 6.0}, {"measurement": "Herbicide rating AMBEL", "setting": "[3]; 0.4000 kg/ha", "value": 7.0}, {"measurement": "Herbicide rating AMBEL", "setting": "[3]; 0.8000 kg/ha", "value": 8.0}, {"measurement": "Herbicide rating CHEAL", "setting": "[4]; 0.0500 kg/ha", "value": 7.0}, {"measurement": "Herbicide rating CHEAL", "setting": "[4]; 0.1000 kg/ha", "value": 9.0}, {"measurement": "Herbicide rating CHEAL", "setting": "[4]; 0.2000 kg/ha", "value": 9.0}, {"measurement": "Herbicide rating CHEAL", "setting": "[4]; 0.4000 kg/ha", "value": 9.0}, {"measurement": "Herbicide rating CHEAL", "setting": "[4]; 0.8000 kg/ha", "value": 9.0}, {"measurement": "Herbicide rating ECHCG", "setting": "[5]; 0.0500 kg/ha", "value": 8.0}, {"measurement": "Herbicide rating ECHCG", "setting": "[5]; 0.1000 kg/ha", "value": 8.0}, {"measurement": "Herbicide rating ECHCG", "setting": "[5]; 0.2000 kg/ha", "value": 8.0}, {"measurement": "Herbicide rating ECHCG", "setting": "[5]; 0.4000 kg/ha", "value": 9.0}, {"measurement": "Herbicide rating ECHCG", "setting": "[5]; 0.8000 kg/ha", "value": 9.0}, {"measurement": "Herbicide rating IPOSS", "setting": "[6]; 0.0500 kg/ha", "value": 0.0}, {"measurement": "Herbicide rating IPOSS", "setting": "[6]; 0.1000 kg/ha", "value": 0.0}, {"measurement": "Herbicide rating IPOSS", "setting": "[6]; 0.2000 kg/ha", "value": 0.0}, {"measurement": "Herbicide rating IPOSS", "setting": "[6]; 0.4000 kg/ha", "value": 2.0}, {"measurement": "Herbicide rating IPOSS", "setting": "[6]; 0.8000 kg/ha", "value": 4.0}, {"measurement": "Herbicide rating ORYSAT", "setting": "[7]; 0.0500 kg/ha", "value": 0.0}, {"measurement": "Herbicide rating ORYSAT", "setting": "[7]; 0.1000 kg/ha", "value": 0.7}, {"measurement": "Herbicide rating ORYSAT", "setting": "[7]; 0.2000 kg/ha", "value": 1.5}, {"measurement": "Herbicide rating ORYSAT", "setting": "[7]; 0.4000 kg/ha", "value": 5.0}, {"measurement": "Herbicide rating ORYSAT", "setting": "[7]; 0.8000 kg/ha", "value": 5.0}, {"measurement": "Herbicide rating PANDI", "setting": "[8]; 0.0500 kg/ha", "value": 3.0}, {"measurement": "Herbicide rating PANDI", "setting": "[8]; 0.1000 kg/ha", "value": 6.0}, {"measurement": "Herbicide rating PANDI", "setting": "[8]; 0.2000 kg/ha", "value": 7.0}, {"measurement": "Herbicide rating PANDI", "setting": "[8]; 0.4000 kg/ha", "value": 6.0}, {"measurement": "Herbicide rating PANDI", "setting": "[8]; 0.8000 kg/ha", "value": 9.0}, {"measurement": "Herbicide rating SETVI", "setting": "[9]; 0.0500 kg/ha", "value": 1.0}, {"measurement": "Herbicide rating SETVI", "setting": "[9]; 0.1000 kg/ha", "value": 4.0}, {"measurement": "Herbicide rating SETVI", "setting": "[9]; 0.2000 kg/ha", "value": 5.0}, {"measurement": "Herbicide rating SETVI", "setting": "[9]; 0.4000 kg/ha", "value": 8.0}, {"measurement": "Herbicide rating SETVI", "setting": "[9]; 0.8000 kg/ha", "value": 9.0}, {"measurement": "Herbicide rating ZEAMX", "setting": "[10]; 0.0500 kg/ha", "value": 0.0}, {"measurement": "Herbicide rating ZEAMX", "setting": "[10]; 0.1000 kg/ha", "value": 0.0}, {"measurement": "Herbicide rating ZEAMX", "setting": "[10]; 0.2000 kg/ha", "value": 0.0}, {"measurement": "Herbicide rating ZEAMX", "setting": "[10]; 0.4000 kg/ha", "value": 0.0}, {"measurement": "Herbicide rating ZEAMX", "setting": "[10]; 0.8000 kg/ha", "value": 0.5}, {"measurement": "Herbicide rating ABUTH", "setting": "[11]; 0.4000 kg/ha", "value": 2.0}, {"measurement": "Herbicide rating ABUTH", "setting": "[11]; 0.8000 kg/ha", "value": 6.0}, {"measurement": "Herbicide rating AMBEL", "setting": "[12]; 0.4000 kg/ha", "value": 3.0}, {"measurement": "Herbicide rating AMBEL", "setting": "[12]; 0.8000 kg/ha", "value": 6.0}, {"measurement": "Herbicide rating CHEAL", "setting": "[13]; 0.4000 kg/ha", "value": 9.0}, {"measurement": "Herbicide rating CHEAL", "setting": "[13]; 0.8000 kg/ha", "value": 9.0}, {"measurement": "Herbicide rating ECHCG", "setting": "[14]; 0.4000 kg/ha", "value": 0.0}, {"measurement": "Herbicide rating ECHCG", "setting": "[14]; 0.8000 kg/ha", "value": 2.0}, {"measurement": "Herbicide rating GOSHI", "setting": "[15]; 0.4000 kg/ha", "value": 0.0}, {"measurement": "Herbicide rating GOSHI", "setting": "[15]; 0.8000 kg/ha", "value": 2.0}, {"measurement": "Herbicide rating IPOSS", "setting": "[16]; 0.4000 kg/ha", "value": 0.0}, {"measurement": "Herbicide rating IPOSS", "setting": "[16]; 0.8000 kg/ha", "value": 2.0}, {"measurement": "Herbicide rating ORYSAT", "setting": "[17]; 0.4000 kg/ha", "value": 0.0}, {"measurement": "Herbicide rating ORYSAT", "setting": "[17]; 0.8000 kg/ha", "value": 3.0}, {"measurement": "Herbicide rating PANDI", "setting": "[18]; 0.4000 kg/ha", "value": 5.0}, {"measurement": "Herbicide rating PANDI", "setting": "[18]; 0.8000 kg/ha", "value": 8.0}, {"measurement": "Herbicide rating SETVI", "setting": "[19]; 0.4000 kg/ha", "value": 4.0}, {"measurement": "Herbicide rating SETVI", "setting": "[19]; 0.8000 kg/ha", "value": 5.0}, {"measurement": "Herbicide rating ZEAMX", "setting": "[20]; 0.4000 kg/ha", "value": 0.0}, {"measurement": "Herbicide rating ZEAMX", "setting": "[20]; 0.8000 kg/ha", "value": 0.0}]}]}
